Measured values from patent US8455688B2, “HDAC inhibitors” (Lixte Biotechnology, Inc., priority 2007, dated 2013).

Tested on: cell line U-87
Assay: Activity against the cell line U-87
Type: cell-based, human
Conditions: potency on an equimolar basis

| Compound | activity against the cell line U-87 |
| --- | --- |
| O=C(CCCCCCCNC(=O)c1ccccc1S)Nc1ccccc1 [Compound 213] | most potent on an equimolar basis |
| O=C(CCCCCCNC(=O)c1ccccc1S)Nc1ccccc1 [Compound 212, 2-Mercapto-N-(6-phenylcarbamoyl-hexyl)benzamide] | most potent on an equimolar basis |
